Here are results for 12 molecules from patent publication US9034311B2, “Pyridin-2(1 H)-one derivatives as JAK inhibitors” (ALMIRALL, S.A., priority 2011, dated 2015).

SMILES strings stand for the structures. pIC50: −log10 of the molar value.

Holding throughout (format): biochemical
The target in assay [1] is T1, human JAK3 (aa 795-1124) catalytic domain (Homo sapiens, UniProt P52333).
T1 construct: JAK3 (aa 795-1124); purchased Carna Biosciences; host or cells: baculovirus expression system (insect cells)
T1 sequence (P52333 795-1124): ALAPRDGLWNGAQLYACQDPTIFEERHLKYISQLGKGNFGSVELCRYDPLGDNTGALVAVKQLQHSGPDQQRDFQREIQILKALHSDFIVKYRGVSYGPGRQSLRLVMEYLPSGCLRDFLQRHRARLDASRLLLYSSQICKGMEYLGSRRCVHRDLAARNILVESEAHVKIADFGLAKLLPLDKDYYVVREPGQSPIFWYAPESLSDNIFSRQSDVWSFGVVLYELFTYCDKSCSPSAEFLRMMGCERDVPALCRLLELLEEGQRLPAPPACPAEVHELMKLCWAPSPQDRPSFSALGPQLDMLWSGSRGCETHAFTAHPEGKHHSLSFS
Nature of the assay: In vitro JAK kinase assay (TR-FRET), JAK3. As to conditions: ATP 0.6 μM, peptide 140 nM, 30 minutes at room temperature. As to the method: (§1) Compounds were screened for their ability to inhibit JAK1, JAK2 and JAK3 using the assays as indicated below.
(§2) The catalytic domains of human JAK1 (aa 850-1154), JAK2 (aa 826-1132), JAK3 (aa 795-1124) and Tyk2 (aa 871-1187) were expressed as N-terminal GST-fusion proteins using a baculovirus expression system and were purchased from Carna Biosciences. The enzymatic activity was assayed using as substrate a biotinylated peptide, poly (GT)-Biotin (CisBio). The peptide concentration in the reactions was 60 nM for JAK1, 20 nM for JAK2, 140 nM for JAK3 and 50 nM for Tyk2. The degree of phosphorylation was detected by TR-FRET (time-resolved fluorescence energy transfer).
(§3) IC50s of compounds were measured for each kinase in a reaction mixture containing the enzyme, ATP and the peptide in 8 mM MOPS (pH 7.0), 10 mM MgCl2, 0.05% β-mercaptoethanol, 0.45 mg/ml BSA. The ATP concentration in the reactions was 3 μM for JAK1, 0.2 μM for JAK2, 0.6 μM for JAK3 and 1.8 μM for Tyk2. The enzymatic reactions took place for 30 minutes at room temperature. Then, the reactions were stopped with 20 μL of quench detection buffer (50 mM HEPES, 0.5 M KF, EDTA 0.25 M, 0.1% (w/v) BSA, pH 7.5) containing 0.115 μg/mL of anti-phosphoTyr (PT66)-Cryptate (CisBio) and a variable concentration of SA-XL665 (CisBio) to keep the SA-B ratio constant. Incubate for 3 h and read on Victor 2V spectrofluorometer (Perkin Elmer) set to read fluorescence resonance energy transfer.
(Time-resolved FRET reads energy transfer from a long-lived donor to a nearby acceptor.)

The target of assay [2] is T2, human JAK1 (aa 850-1154) catalytic domain (Homo sapiens, UniProt P23458).
T2 construct: human JAK1 (aa 850-1154); purchased Carna Biosciences; host or cells: baculovirus expression system (insect cells)
T2 sequence (P23458 850-1154): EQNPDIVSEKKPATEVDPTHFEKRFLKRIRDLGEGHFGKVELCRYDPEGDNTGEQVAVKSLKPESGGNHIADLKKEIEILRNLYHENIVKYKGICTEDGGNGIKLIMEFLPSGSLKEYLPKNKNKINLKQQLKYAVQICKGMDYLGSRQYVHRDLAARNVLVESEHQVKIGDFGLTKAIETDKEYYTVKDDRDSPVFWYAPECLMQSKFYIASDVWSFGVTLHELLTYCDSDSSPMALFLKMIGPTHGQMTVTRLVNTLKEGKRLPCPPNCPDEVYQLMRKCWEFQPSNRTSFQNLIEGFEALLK
Nature of the assay: In vitro JAK kinase assay (TR-FRET), JAK1. As to conditions: ATP 3 μM, peptide 60 nM, 30 minutes at room temperature. As to the method: as §1, §2, §3

The target in assay [3] is T3, human JAK2 (aa 826-1132) catalytic domain (Homo sapiens, UniProt O60674).
T3 construct: JAK2 (aa 826-1132); purchased Carna Biosciences; host or cells: baculovirus expression system (insect cells)
T3 sequence (O60674 826-1132): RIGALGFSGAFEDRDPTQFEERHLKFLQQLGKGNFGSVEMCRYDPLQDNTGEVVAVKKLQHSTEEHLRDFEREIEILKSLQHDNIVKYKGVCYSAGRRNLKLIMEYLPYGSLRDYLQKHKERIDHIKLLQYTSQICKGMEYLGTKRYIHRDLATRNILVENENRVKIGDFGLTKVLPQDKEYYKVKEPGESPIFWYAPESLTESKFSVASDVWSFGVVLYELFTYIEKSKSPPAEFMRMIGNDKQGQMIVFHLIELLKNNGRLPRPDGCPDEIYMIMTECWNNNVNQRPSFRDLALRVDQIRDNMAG
As to the kind of experiment: In vitro JAK kinase assay (TR-FRET), JAK2. The note with it: ATP 0.2 μM, peptide 20 nM, 30 minutes at room temperature. As to the method: as §1, §2, §3

Consider `C[C@H](Nc1nc(Nc2ccc[nH]c2=O)ncc1C(N)=O)c1ccc(F)cn1` [Example 6, (S)-4-(1-(5-fluoropyridin-2-yl)ethylamino)-2-(2-oxo-1,2-dihydropyridin-3-ylamino) pyrimidine-5-carboxamide], for which the pIC50 in assay [1] was > 7.00; in assay [2] it was 6.00 to 7.00; in assay [3], > 7.00.
`COc1cnc(Nc2ccc[nH]c2=O)nc1N[C@@H](C)c1ccc(F)cn1` [Example 4, 3-[(4-{[(1S)-1-(5-fluoropyridin-2-yl)ethyl]amino}-5-methoxypyrimidin-2-yl)amino]pyridin-2(1H)-one]: the pIC50 in assay [1], in assay [2] and in assay [3] was > 7.00 throughout.
On to `N#CCC(=O)N1CCC[C@@H](Nc2nc(Nc3ccc[nH]c3=O)ncc2F)C1` [Example 17, (R)-3-(3-(5-Fluoro-2-(2-oxo-1,2-dihydropyridin-3-ylamino)pyrimidin-4-ylamino)piperidin-1-yl)-3-oxopropanenitrile], for which the negative logarithm of the IC50 (pIC50) in assay [1], in assay [2] and in assay [3] was > 7.00 in each case.
With `C[C@H](Nc1nc(Nc2ccc[nH]c2=O)ncc1O)c1ccc(F)cn1` [Example 5, 3-[(4-{[(1S)-1-(5-fluoropyridin-2-yl)ethyl]amino}-5-hydroxypyrimidin-2-yl)amino]pyridin-2(1H)-one], the pIC50 in assay [1], in assay [2] and in assay [3] was > 7.00 throughout.
Consider `O=c1[nH]cccc1Nc1ncc(F)c(N[C@@H]2CCCN(c3nnc[nH]3)C2)n1` [Example 18, (R)-3-(4-(1-(4H-1,2,4-Triazol-3-yl)piperidin-3-ylamino)-5-fluoropyrimidin-2-ylamino) pyridin-2(1H)-one], for which the pIC50 was > 7.00 in assay [1], 6.00 to 7.00 in assay [2] and > 7.00 in assay [3].
Turning to `Cc1c(Nc2ccc[nH]c2=O)nc(N[C@@H]2CCCN(C(=O)CC#N)C2)nc1N1CCOCC1` [Example 22, 3-[(3R)-3-({5-methyl-4-morpholin-4-yl-6-[(2-oxo-1,2-dihydropyridin-3-yl)amino]pyrimidin-2-yl}amino)piperidin-1-yl]-3-oxopropanenitrile], the pIC50 in assay [1], in assay [2] and in assay [3] was > 7.00 throughout.
On to `O=c1[nH]cccc1Nc1nccc(N[C@H]2CC[C@H](CS(=O)(=O)N3CCCC(O)C3)CC2)n1` (relative stereo) [Example 14, 3-({4-[(trans-4-{[(3-hydroxypiperidin-1-yl)sulfonyl]methyl}cyclohexyl)amino]pyrimidin-2-yl}amino)pyridin-2(1H)-one], for which the negative logarithm of the IC50 (pIC50) in assay [1] is 6.00 to 7.00; in assay [2], < 6.00; in assay [3], > 7.00.
For `Cc1cnc(Nc2cc(Cl)c[nH]c2=O)nc1N[C@@H](C)c1ccc(F)cn1` [Example 7, (S)-5-chloro-3-(4-(1-(5-fluoropyridin-2-yl)ethylamino)-5-methylpyrimidin-2-ylamino)pyridin-2(1H)-one], in that order: > 7.00, > 7.00 and > 7.00.
Regarding `N#CCC(=O)N1CCC[C@@H](Nc2nc(Nc3ccc[nH]c3=O)nc(N3CCOCC3)c2F)C1` [Example 20, 3-[(3R)-3-({5-fluoro-6-morpholin-4-yl-2-[(2-oxo-1,2-dihydropyridin-3-yl)amino]pyrimidin-4-yl}amino)piperidin-1-yl]-3-oxopropanenitrile], the pIC50 in assay [1], in assay [2] and in assay [3] was > 7.00 each time.
Regarding `Cc1cnc(Nc2ccc[nH]c2=O)nc1N[C@H]1CC[C@H](CC#N)CC1` [Example 13, 2-((1r,4r)-4-(5-Methyl-2-(2-oxo-1,2-dihydropyridin-3-ylamino)pyrimidin-4-ylamino)cyclohexyl)acetonitrile], the pIC50 in assay [1], in assay [2] and in assay [3] was > 7.00 throughout.
On to `C[C@H](Nc1cncc(Nc2ccc[nH]c2=O)n1)c1ccc(F)cn1` [Example 11, 3-[(6-{[(1S)-1-(5-Fluoropyridin-2-yl)ethyl]amino}pyrazin-2-yl)amino]pyridin-2(1H)-one], for which the negative-log IC50 (pIC50) in assay [1], in assay [2] and in assay [3] was > 7.00 in each case.
Regarding `C[C@H](Nc1cccc(Nc2ccc[nH]c2=O)n1)c1ccc(F)cn1` [Example 12], the pIC50 is > 7.00 in assay [1], 6.00 to 7.00 in assay [2] and > 7.00 in assay [3].

As usually defined, the pIC50 is −log10 of the IC50, conventionally taken in molar units. The low end stands for a high IC50, the high end for a low IC50.
